Where two headings read alike, the source gives them in different places.
How the values were obtained:
probiotic capsules = settings: for % survival: 3 months cold storage, relative to Blanc; for CFU/g: capsules 15% in basic cream pH 4.5, 3 months cold storage
Description: A basic cream without preservatives/perfume was used as basis for further tests. The preservative tested was Sorbic acid (2,4 hexadienoic acid), an organic acid with pKa 4.76 at 25° C. at different concentrations. The pH of the cream for all the tested conditions was adjusted to 4.5 using HCl/NaOH.
The probiotic capsules are suspended 15% (m/) in the cream base with the different preservative concentrations. To simulate release of the probiotics in vivo, the use of a Citric acid buffer was used in vitro. The citric acid will dissolve the membrane of the capsule and hereby release the probiotics inside the capsule. CA buffer was made by dissolving 31.2 g Na2HPo4 & 1.25 g Citric acid in 971.54 g Sterile water. The Final solution is isotonic with a pH of 7.4±0.2.
The sample creams are sampled in duplo after which it is dissolved in CA-buffer. A further 1/10 dilution series is made and 0.1 ml is spread on MRS agar plates using the ‘copacabana spread plating method’ with 5 glass beads diameter 4 mm. Plating happens in duplo and results (after 3 days incubation 37° C.) are calculated as CFU/ gram cream. Storage happens at 4° C. & 25° C. Sampling happens after 1-2-3 months.

[1] = test system: E. coli (DSM 1576), Ps. Aeruginosa (DSM 1128), C. albicans (DSM 1386), St. aureus (DSM 799), As. Niger (DSM 1988); settings: base cream without capsules, pH 4.5, 4 weeks, concentrations as low as 0.1%
Description: This was proven by conducting a challenge test on the cream (without the probiotic capsules) with the different preservative concentrations, according to the European Pharmacopeia (5.1.3).
Challenge tests are used to determine the efficacy of the antimicrobial conservation system for dermatological products. […] Sorbic acid was tested in concentrations : 0.5%-0.3%-0.1%-0% (Control).
The challenged organisms were E. coli (DSM 1576), Ps. Aeruginosa (DSM 1128), C. albicans (DSM 1386), St. aureus (DSM 799), As. Niger (DSM 1988).
Addition of the challenged organisms (in 100 gram product) happens at 10^6 CFU/ML. Sampling happens after 6 hours, 24 hours, 7-14 & 28 days. A challenge test is successful if at least a 3 log reduction is visible after 7 days for the bacteria and a 2 log reduction for the yeasts/molds after 14 days—3 log after 4 weeks. Results shown are after 4 weeks of sampling.

[2] = at 25° C.; cited from earlier work

CC=CC=CC(=O)O [Sorbic acid, 2,4 hexadienoic acid]
% survival (probiotic capsules; sorbic acid 0.03 %): 68%
CFU/g (probiotic capsules; sorbic acid 0.03 %): 6.E+07 CFU/g
% survival (probiotic capsules; sorbic acid 0.1 %): 79%
CFU/g (probiotic capsules; sorbic acid 0.1 %): 7.E+07 CFU/g
% survival (probiotic capsules; sorbic acid 0.3 %): 76%
CFU/g (probiotic capsules; sorbic acid 0.3 %): 7.E+07 CFU/g
preservative effect in challenge test [1]: good preservative effect
pKa [2]: 4.76

— patent US20190321302A1, “PRESERVATION OF MICROORGANISMS” (Yun NV, priority 2016, published 2019)
